Results: patent US9150603B2, “2′-cyano substituted nucleoside derivatives and methods of use thereof useful for the treatment of viral diseases” (priority 2011, dated 2015)

Legend:
replicon cells (1b-Con1) = experiment: Replicon activity assay (1b-Con1 replicon cells, real-time RT-PCR); assay type: cell-based, HCV; conditions: three days post-dosing
replicon cells = experiment: Cytotoxicity in replicon cells (MTS assay); conditions: CC50, MTS assay, three days post dosing
HCV replicon cells (1b) = experiment: Cell-based HCV replicon assay (replicon RNA level by Taqman real time PCR); conditions: HCV 1b replicon, cells harvested on day 3
Procedure: To measure cell-based anti-HCV activity of selected compounds of the present invention, replicon cells were seeded at 5000 cells/well in 96-well collagen I-coated Nunc plates in the presence of the test compound. […]. Cells were harvested on day 3 by the addition of 1× cell lysis buffer (Ambion cat #8721). The replicon RNA level was measured using real time PCR (Taqman assay). The amplicon was located in 5B. The PCR primers were: 5B.2F, […] (SEQ ID. NO. 1); 5B.2R, […] (SEQ ID. NO. 2); the probe sequence was FAM-labeled […] (SEQ ID. NO. 3). GAPDH RNA was used as endogenous control and was amplified in the same reaction as NSSB (multiplex PCR) using primers and VIC-labeled probe recommended by the manufacturer (PE Applied Biosystem). The real-time RT-PCR reactions were run on ABI PRISM 7900HT Sequence Detection System using the following program: 48° C. for 30 minutes, 95° C. for 10 minutes, 40 cycles of 95° C. for 15 sec, 60° C. for 1 minute. The ACT values (CT5B−CTGAPDH) were plotted against the concentration of test compound and fitted to the sigmoid dose-response model using XLfit4 (MDL). […]; Alternatively, to quantitate the absolute amount of replicon RNA, a standard curve was established by including serially diluted T7 transcripts of replicon RNA in the Taqman assay. All Taqman reagents were from […] Applied Biosystems. Such an assay procedure was described in detail in e.g. Malcolm et al., Antimicrobial Agents and Chemotherapy 50: 1013-1020 (2006).

[1] = biological target: T1, HCV NS5B RNA-dependent RNA polymerase (1b-BKΔ55) (Hepatitis C virus genotype 1b, UniProt P26663); experiment: Inhibition of HCV NS5B polymerase by nucleoside triphosphate analogs (radiolabeled nucleotide incorporation assay); assay type: biochemical
T1 construct: 5 nM NS5B (1b-BKΔ55) enzyme
T1 sequence (P26663 2420-2955 limits assumed, stated change not applied): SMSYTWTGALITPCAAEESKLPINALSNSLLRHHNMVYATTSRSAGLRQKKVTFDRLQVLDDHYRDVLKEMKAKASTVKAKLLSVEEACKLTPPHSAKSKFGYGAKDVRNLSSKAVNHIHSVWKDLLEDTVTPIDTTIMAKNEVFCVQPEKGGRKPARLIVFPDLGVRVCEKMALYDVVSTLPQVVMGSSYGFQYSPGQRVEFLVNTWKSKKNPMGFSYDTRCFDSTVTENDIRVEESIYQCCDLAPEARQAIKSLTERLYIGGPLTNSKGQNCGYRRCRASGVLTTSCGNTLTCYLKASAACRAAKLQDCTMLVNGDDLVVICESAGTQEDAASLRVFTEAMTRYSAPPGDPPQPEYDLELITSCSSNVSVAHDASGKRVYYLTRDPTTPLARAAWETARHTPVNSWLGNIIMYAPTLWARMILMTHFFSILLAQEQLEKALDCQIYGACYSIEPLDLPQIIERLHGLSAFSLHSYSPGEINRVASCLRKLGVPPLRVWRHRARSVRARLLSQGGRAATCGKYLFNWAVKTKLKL

Replicon (1a) = experiment: microbe, parasite or virus in culture; assay type: cell-based, HCV; conditions: Hepatitis C virus; 1a replicon, marked (1a) in the cell

C[C@H](NP(=O)(OC[C@H]1O[C@@H](n2ccc(=O)[nH]c2=O)[C@](C)(C#N)[C@@H]1O)Oc1ccccc1)C(=O)O[C@H](C)c1ccccc1 (stereo partly shown)
EC50 (replicon cells (1b-Con1); Hepatitis C virus, 72 h): 34 µM
Cytotoxicity (replicon cells): >100 µM

CC(C)OC(=O)[C@H](C)NP(=O)(OC[C@H]1O[C@@H](n2ccc(=O)[nH]c2=O)[C@](C)(C#N)[C@@H]1O)Oc1ccccc1 (stereo partly shown)
EC50 (replicon cells (1b-Con1); Hepatitis C virus, 72 h): 8.3 µM
Cytotoxicity (replicon cells): >100 µM

C[C@H](NP(=O)(OC[C@H]1O[C@@H](n2ccc(=O)[nH]c2=O)[C@](C)(C#N)[C@@H]1O)Oc1ccccc1)C(=O)OC1CCCCC1 (stereo partly shown)
EC50 (replicon cells (1b-Con1); Hepatitis C virus, 72 h): 2.4 µM

CCCOC(=O)[C@H](C)NP(=O)(OC[C@H]1O[C@@H](n2cnc3c(OC)nc(N)nc32)[C@](C)(C#N)[C@@H]1O)Oc1ccccc1 (stereo partly shown)
EC50 (replicon cells (1b-Con1); Hepatitis C virus, 72 h): 2.1 µM

COc1nc(N)nc2c1ncn2[C@@H]1O[C@H](COP(=O)(N[C@@H](C)C(=O)OC(C)C)Oc2ccccc2)[C@@H](O)[C@@]1(C)C#N (stereo partly shown)
EC50 (replicon cells (1b-Con1); Hepatitis C virus, 72 h): 2.2 µM
Cytotoxicity (replicon cells): >100 µM

COc1nc(N)nc2c1ncn2[C@@H]1O[C@H](COP(=O)(N[C@@H](C)C(=O)OC(C)C)Oc2ccccc2OC(C)=O)[C@@H](O)[C@@]1(C)C#N (stereo partly shown)
EC50 (replicon cells (1b-Con1); Hepatitis C virus, 72 h): 8.9 µM
Cytotoxicity (replicon cells): 15 µM

CC(C)OP1(=O)OC[C@H]2O[C@@H](n3ccc(=O)[nH]c3=O)[C@](C)(C#N)[C@@H]2O1 (stereo partly shown)
EC50 (replicon cells (1b-Con1); Hepatitis C virus, 72 h): 1.3 µM
Cytotoxicity (replicon cells): >100 µM

CC(C)COC(=O)[C@H](C)NP(=O)(OC[C@H]1O[C@@H](n2ccc(N)nc2=O)[C@](C)(C#N)[C@@H]1O)Oc1ccccc1 (stereo partly shown)
EC50 (replicon cells (1b-Con1); Hepatitis C virus, 72 h): 0.4 µM
Cytotoxicity (replicon cells): 92 µM

CCC(NP(=O)(OC[C@H]1O[C@@H](n2cnc3c(OC)nc(N)nc32)[C@](C)(C#N)[C@@H]1O)Oc1ccccc1)C(=O)OC(C)C (stereo partly shown)
EC50 (replicon cells (1b-Con1); Hepatitis C virus, 72 h): 2.2 µM
Cytotoxicity (replicon cells): >100 µM

CCOc1nc(N)nc2c1ncn2[C@@H]1O[C@@H]2COP(=O)(OC3CCC3)O[C@H]2[C@@]1(C)C#N (stereo partly shown)
EC50 (replicon cells (1b-Con1); Hepatitis C virus, 72 h): 1.2 µM
Cytotoxicity (replicon cells): >100 µM

CC(=O)Nc1ccn([C@@H]2O[C@H](CO)[C@@H](O)[C@@]2(C)C#N)c(=O)n1 [Compound 1]
EC50 (HCV replicon cells (1b); Hepatitis C virus, 72 h): 14 µM

C[C@@]1(C#N)[C@H](O)[C@@H](CO)O[C@H]1n1ccc(=O)[nH]c1=O [Compound 2, 1-[(2R,3R,4S,5R)-3-cyano-4-hydroxy-5-(hydroxymethyl)-3-methyloxolan-2-yl]-1,2,3,4-tetrahydropyrimidine-2,4-dione]
EC50 (HCV replicon cells (1b)): 12.6 µM

C[C@@]1(C#N)[C@H](O)[C@@H](CO)O[C@H]1n1ccc(=O)[nH]c1=O [Compound 3]
EC50 (HCV replicon cells (1b)): > 66 µM

CCOc1nc(NC(C)=O)nc2c1ncn2[C@@H]1O[C@H](CO)[C@@H](O)[C@@]1(C)C#N [Compound 4]
EC50 (HCV replicon cells (1b); Hepatitis C virus, 72 h): 100 µM

CCOc1nc(N)nc2c1ncn2[C@@H]1O[C@H](CO)[C@@H](O)[C@@]1(C)C#N [Compound 5]
EC50 (HCV replicon cells (1b); Hepatitis C virus, 72 h): > 100 µM

CCOc1nc(N)nc2c1ncn2[C@@H]1O[C@H](COP(=O)(N[C@@H](C)C(=O)OC)Oc2ccccc2)[C@@H](O)[C@@]1(C)C#N (stereo partly shown) [Compound 6]
EC50 (HCV replicon cells (1b); Hepatitis C virus, 72 h): 1.4 µM

CCCCOC(=O)[C@H](C)NP(=O)(OC[C@H]1O[C@@H](n2cnc3c(OCC)nc(N)nc32)[C@](C)(C#N)[C@@H]1O)Oc1cccc2ccccc12 (stereo partly shown) [Compound 7]
EC50 (HCV replicon cells (1b); Hepatitis C virus, 72 h): 1 µM

CCOC(=O)[C@H](C)NP(=O)(OC[C@H]1O[C@@H](n2cnc3c(OCC)nc(N)nc32)[C@](C)(C#N)[C@@H]1O)Oc1ccccc1 (stereo partly shown) [Compound 8]
EC50 (HCV replicon cells (1b); Hepatitis C virus, 72 h): 11.7 µM

CCOc1nc(N)nc2c1ncn2[C@@H]1O[C@H](COP(=O)(N[C@@H](C)C(=O)OCC(C)(C)C)Oc2ccccc2)[C@@H](O)[C@@]1(C)C#N (stereo partly shown) [Compound 9]
EC50 (HCV replicon cells (1b); Hepatitis C virus, 72 h): 0.7 µM

CCOc1nc(N)nc2c1ncn2[C@@H]1O[C@H](COP(=O)(N[C@@H](C)C(=O)OC(C)C)Oc2ccccc2)[C@@H](O)[C@@]1(C)C#N (stereo partly shown) [Compound 10]
EC50 (HCV replicon cells (1b); Hepatitis C virus, 72 h): 15 µM

CCOC(=O)[C@H](C)NP(=O)(OC[C@H]1O[C@@H](n2cnc3c(OCC)nc(N)nc32)[C@](C)(C#N)[C@@H]1O)Oc1ccc(F)cc1 (stereo partly shown) [Compound 11]
EC50 (HCV replicon cells (1b); Hepatitis C virus, 72 h): 17 µM

CCOC(=O)[C@H](C)NP(=O)(OC[C@H]1O[C@@H](n2cnc3c(OCC)nc(N)nc32)[C@](C)(C#N)[C@@H]1O)Oc1ccc(Cl)cc1 (stereo partly shown) [Compound 12]
EC50 (HCV replicon cells (1b); Hepatitis C virus, 72 h): 1.7 µM

CCCCOC(=O)[C@H](C)NP(=O)(OC[C@H]1O[C@@H](n2cnc3c(OCC)nc(N)nc32)[C@](C)(C#N)[C@@H]1O)Oc1ccccc1 (stereo partly shown) [Compound 13]
EC50 (HCV replicon cells (1b); Hepatitis C virus, 72 h): 1.5 µM

COC(=O)[C@H](C)NP(=O)(OC[C@H]1O[C@@H](n2ccc(=O)[nH]c2=O)[C@](C)(C#N)[C@@H]1O)Oc1ccccc1 (stereo partly shown) [Compound 14]
EC50 (HCV replicon cells (1b); Hepatitis C virus, 72 h): 11 µM

C[C@H](NP(=O)(OC[C@H]1O[C@@H](n2ccc(=O)[nH]c2=O)[C@](C)(C#N)[C@@H]1O)Oc1ccccc1)C(=O)OCC(C)(C)C (stereo partly shown) [Compound 15]
EC50 (HCV replicon cells (1b); Hepatitis C virus, 72 h): 5 µM

CCOC(=O)[C@H](C)NP(=O)(OC[C@H]1O[C@@H](n2ccc(=O)[nH]c2=O)[C@](C)(C#N)[C@@H]1O)Oc1ccccc1 (stereo partly shown) [Compound 16]
EC50 (HCV replicon cells (1b); Hepatitis C virus, 72 h): 51 µM

COC(=O)[C@H](C)NP(=O)(OC[C@H]1O[C@@H](n2ccc(=O)[nH]c2=O)[C@](C)(C#N)[C@@H]1O)Oc1ccc(Cl)cc1 (stereo partly shown) [Compound 17]
EC50 (HCV replicon cells (1b); Hepatitis C virus, 72 h): 13 µM

CCCCOC(=O)[C@H](C)NP(=O)(OC[C@H]1O[C@@H](n2ccc(=O)[nH]c2=O)[C@](C)(C#N)[C@@H]1O)Oc1cccc2ccccc12 (stereo partly shown) [Compound 18]
EC50 (HCV replicon cells (1b); Hepatitis C virus, 72 h): 1 µM

CCOC(=O)[C@H](C)NP(=O)(OC[C@H]1O[C@@H](n2ccc(=O)[nH]c2=O)[C@](C)(C#N)[C@@H]1O)Oc1ccc(Cl)cc1 (stereo partly shown) [Compound 19]
EC50 (HCV replicon cells (1b); Hepatitis C virus, 72 h): 15 µM

CCCCOC(=O)[C@H](C)NP(=O)(OC[C@H]1O[C@@H](n2ccc(N)nc2=O)[C@](C)(C#N)[C@@H]1O)Oc1cccc2ccccc12 (stereo partly shown) [Compound 20]
EC50 (HCV replicon cells (1b); Hepatitis C virus, 72 h): 16 µM

COC(=O)[C@H](C)NP(=O)(OC[C@H]1O[C@@H](n2ccc(N)nc2=O)[C@](C)(C#N)[C@@H]1O)Oc1ccccc1 (stereo partly shown) [Compound 21]
EC50 (HCV replicon cells (1b); Hepatitis C virus, 72 h): 25 µM

C[C@H](NP(=O)(OC[C@H]1O[C@@H](n2ccc(N)nc2=O)[C@](C)(C#N)[C@@H]1O)Oc1ccccc1)C(=O)OCC(C)(C)C (stereo partly shown) [Compound 22]
EC50 (HCV replicon cells (1b); Hepatitis C virus, 72 h): 18 µM

CC(C)OP1(=O)OC[C@H]2O[C@@H](n3ccc(N)nc3=O)[C@](C)(C#N)[C@@H]2O1 (stereo partly shown) [Compound 23]
EC50 (HCV replicon cells (1b); Hepatitis C virus, 72 h): 6.7 µM

CC(C)OP1(=O)OC[C@H]2O[C@@H](n3ccc(N)nc3=O)[C@](C)(C#N)[C@@H]2O1 (stereo partly shown) [Compound 24]
EC50 (HCV replicon cells (1b)): 7.9 µM

CCOP1(=O)OC[C@H]2O[C@@H](n3ccc(N)nc3=O)[C@](C)(C#N)[C@@H]2O1 (stereo partly shown) [Compound 25]
EC50 (HCV replicon cells (1b); Hepatitis C virus, 72 h): > 100 µM

C[C@@]1(C#N)[C@@H]2OP(=O)(Oc3ccccc3)OC[C@H]2O[C@H]1n1ccc(N)nc1=O (stereo partly shown) [Compound 26]
EC50 (HCV replicon cells (1b); Hepatitis C virus, 72 h): 62 µM

C[C@@]1(C#N)[C@@H]2OP(=O)(OC3CCC3)OC[C@H]2O[C@H]1n1ccc(N)nc1=O (stereo partly shown) [Compound 27]
EC50 (HCV replicon cells (1b); Hepatitis C virus, 72 h): > 100 µM

CCOc1nc(N)nc2c1ncn2[C@@H]1O[C@@H]2COP(=O)(OC(C)C)O[C@H]2[C@@]1(C)C#N (stereo partly shown) [Compound 28]
EC50 (HCV replicon cells (1b); Hepatitis C virus, 72 h): 2.7 µM

C[C@@]1(C#N)[C@H](O)[C@@H](COP(=O)(O)OP(=O)(O)OP(=O)(O)O)O[C@H]1n1ccc(N)nc1=O [Compound 29]
IC50 [1]: 0.5 µM

CC(C)OC(=O)[C@H](C)NP(=O)(OC[C@H]1O[C@@H](n2ccc(=O)[nH]c2=O)[C@](C)(C#N)[C@@H]1O)Oc1ccccc1Cl (stereo partly shown) [Compound 30]
EC50 (HCV replicon cells (1b); Hepatitis C virus, 72 h): 571 µM

CC(C)COC(=O)[C@H](C)NP(=O)(OC[C@H]1O[C@@H](n2ccc(=O)[nH]c2=O)[C@](C)(C#N)[C@@H]1O)Oc1ccccc1 (stereo partly shown) [drawing 352]
EC50 (replicon cells (1b-Con1)): 1.4 µM
Cytotoxicity (replicon cells): >100 µM

CCCCOC(=O)[C@H](C)NP(=O)(OC[C@H]1O[C@@H](n2ccc(=O)[nH]c2=O)[C@](C)(C#N)[C@@H]1O)Oc1cccc2ccccc12 (stereo partly shown) [drawing 354]
EC50 (replicon cells (1b-Con1); Hepatitis C virus, 72 h): 2.7 µM
Cytotoxicity (replicon cells): >100 µM

CC(C)OC(=O)[C@H](C)NP(=O)(OC[C@H]1O[C@@H](n2ccc(N)nc2=O)[C@](C)(C#N)[C@@H]1O)Oc1ccccc1 (stereo partly shown) [drawing 359]
EC50 (replicon cells (1b-Con1); Hepatitis C virus, 72 h): 5.2 µM
Cytotoxicity (replicon cells): >100 µM

CC(C)COC(=O)[C@H](C)NP(=O)(OC[C@H]1O[C@@H](n2ccc(=O)[nH]c2=O)[C@](C)(C#N)[C@@H]1O)Oc1ccccc1 (stereo partly shown) [drawing 360]
EC50 (replicon cells (1b-Con1); Hepatitis C virus, 72 h): 1.3 µM
Cytotoxicity (replicon cells): >100 µM

CC(C)OC(=O)[C@H](C)NP(=O)(OC[C@H]1O[C@@H](n2ccc(N)nc2=O)[C@](C)(C#N)[C@@H]1O)Oc1ccccc1 (stereo partly shown) [drawing 363]
EC50 (Replicon (1a)): 0.9 µM
Cytotoxicity (replicon cells): >100 µM
